Reference: ChEMBL document CHEMBL5308541, “MAIP: An Open-Source Tool to Enrich High-Throughput Screening Output and Identify Novel, Druglike Molecules with Antimalarial Activity” (ACS Med Chem Lett, 2023)

Legend:
Plasmodium falciparum [1] = assay: Hit confirmation in dose-response curve in NF54 nanoGlo assay, at 72h; type: functional, organism-based, Erythrocyte; parameters: timepoint 72 hour; settings: Plasmodium falciparum, NF54, Erythrocyte, 72 h
Plasmodium falciparum [2] = assay: Hit confirmation in dose-response curve in NF54 pLDH assay, at 72h; type: functional, organism-based, Erythrocyte; parameters: timepoint 72 hour; settings: Plasmodium falciparum, NF54, Erythrocyte, 72 h
Plasmodium falciparum [3] = assay: Hit confirmation in dose-response curve in Dd2 pLDH assay, at 72h; type: functional, organism-based, Erythrocyte; parameters: timepoint 72 hour; settings: Plasmodium falciparum, Dd2, Erythrocyte, 72 h
Plasmodium falciparum [4] = assay: Hit confirmation in dose-response curve in NF54 nanoGlo assay, at 12h; type: functional, organism-based, Erythrocyte; parameters: timepoint 12 hour; settings: Plasmodium falciparum, NF54, Erythrocyte, 12 h
[5] = Hit confirmation in dose-response curve in HepG2 cytotoxicity assay, at 72h; type: toxicity, cell-based, Homo sapiens; parameters: timepoint 72 hour; settings: human, HepG2 cells

Compound	IC50 (Plasmodium falciparum [1])	IC50 (Plasmodium falciparum [2])	IC50 (Plasmodium falciparum [3])	IC50 (Plasmodium falciparum [4])	IC50 at 72 h [5]
CC(C)(C)n1ncc2c(NCc3ccc4cccnc4c3O)ncnc21	3.89 µM	6.46 µM	5.5 µM	10 µM	6.31 µM
CCN1CCN([C@H]2CCN(c3ccnc4ccncc34)C2)CC1	1.32 µM	1.15 µM	1.12 µM	2 µM	> 10 µM
FC(F)(F)c1ccc(N2CCC[C@H](NC3CCN(Cc4ccco4)CC3)C2)nc1	7.59 µM	7.59 µM	8.13 µM	> 10 µM	> 10 µM
COc1ccc2cc(NC(=O)c3cc(-c4c(C)nn(C)c4C)[nH]n3)cnc2c1	2.51 µM	7.24 µM	7.08 µM	4.9 µM	> 10 µM
OC[C@H](CNCc1cc2ccc(F)cc2[nH]1)c1ccccc1Cl	2.34 µM	3.72 µM	3.31 µM	3.98 µM	> 10 µM
COCCN1CC[C@H](CN(C)c2ccnc3cc(Cl)ccc23)C1	1.38 µM	1.51 µM	1.45 µM	1.82 µM	> 10 µM
CN1CCN(CC2CCN(c3ccnc4ccccc34)CC2)CC1	1.35 µM	1.35 µM	1.2 µM	1.91 µM	> 10 µM
O[C@@H](CNCc1cc2cc(Cl)c(Cl)cc2[nH]1)c1ccc(F)cc1	2.34 µM	8.51 µM	3.39 µM	5.01 µM	> 10 µM
COc1ccc(-c2cc(C(=O)Nc3ccc(N4CCN5CCCC5C4)cc3)c3c(C)noc3n2)cc1 (stereo not given)	4.27 µM	7.59 µM	5.75 µM	6.46 µM	> 10 µM
CCNc1cc(C)nc(NCCNC(=O)Nc2cc(F)cc(F)c2)n1	2.4 µM	3.47 µM	3.47 µM	> 10 µM	> 10 µM
COC(CN(Cc1nc(N)nc(Nc2ccc(C)cc2)n1)Cc1nc(N)nc(Nc2ccc(C)cc2)n1)OC	0.912 µM	3.47 µM	1.45 µM	> 10 µM	> 10 µM
Cc1ccc(CNc2ncnc(N)c2Cl)c(N2CCCC2)n1	2.45 µM	> 10 µM	> 10 µM	1.07 µM	> 10 µM
O=C(NCc1ccc(OC(F)(F)F)cc1)N(CCN1CCCC1)[C@H]1CCCNC1	4.57 µM	5.37 µM	4.47 µM	> 10 µM	> 10 µM
COc1ccc2c(N3CC[C@H](CN4CCCC4)C3)ccnc2c1	0.525 µM	0.589 µM	0.417 µM	0.794 µM	> 10 µM
CN(C[C@H](O)COc1cccc(CNCCCOc2cccnc2)c1)C1CCCCC1	5.13 µM	6.17 µM	6.92 µM	> 10 µM	> 10 µM
Cc1nc(N2CCN(C)CC2)cc(N2CCN(S(=O)(=O)c3ccccc3C(F)(F)F)CC2)n1	1.23 µM	6.61 µM	4.37 µM	0.977 µM	> 10 µM
Cc1noc(-c2ccnc(NC[C@@H](c3ccccn3)N3CCOCC3)c2)n1	1.58 µM	3.98 µM	3.02 µM	> 10 µM	> 10 µM
Oc1ccc(OC(F)(F)F)cc1-c1ccc2nccn2n1	3.16 µM	7.76 µM	6.31 µM	6.76 µM	> 10 µM

Compound	IC50 (Plasmodium falciparum [1])	IC50 (Plasmodium falciparum [2])	IC50 (Plasmodium falciparum [3])	IC50 (Plasmodium falciparum [4])	IC50 at 72 h [5]
COc1ccc(OC2CCN(C3CCCC3)CC2)c(C(=O)NCc2cccc3[nH]ccc23)c1	4.47 µM	5.37 µM	6.17 µM	> 10 µM	> 10 µM
O=C(Nc1cnc2c(c1)COCC2)c1cc2c(OC(F)(F)F)cccc2[nH]1	0.676 µM	1.55 µM	2.19 µM	0.955 µM	> 10 µM
CN(C)Cc1cccc(CCNCc2csc(-c3ccc(C(F)(F)F)cc3)n2)c1	2.63 µM	3.47 µM	2.69 µM	4.79 µM	7.76 µM
O=C(NCc1ccc(N2CCNCC2)c(F)c1)c1ccc(-c2noc(C(F)(F)F)n2)cc1	2.63 µM	2.57 µM	2.63 µM	6.61 µM	> 10 µM
COc1ccc(CCNCc2ccc3[nH]cnc3c2)c(Cl)c1	3.02 µM	4.47 µM	3.47 µM	> 10 µM	> 10 µM
COCCN1CCC[C@@]2(CCN(c3ccnc4cc(Cl)ccc34)C2)C1	0.162 µM	0.166 µM	0.135 µM	0.234 µM	> 10 µM
c1ccc(CCC23CN(Cc4ccccn4)CC2CN(Cc2ccns2)C3)cc1 (stereo not given)	1.45 µM	3.55 µM	4.17 µM	6.46 µM	> 10 µM
c1ccc2c(Nc3ccc4[nH]cnc4c3)c3ccccc3nc2c1	0.832 µM	1.7 µM	1.41 µM	1.82 µM	> 10 µM
Clc1cccc(N2CC[C@H](CNC3CCN(Cc4ccco4)CC3)C2)c1	3.47 µM	3.72 µM	3.16 µM	5.25 µM	> 10 µM
Cc1cc(N2CCC(NC3CCCC3Cc3ccc(F)cc3)CC2)nc(N)n1 (stereo not given)	0.912 µM	1.1 µM	1.1 µM	3.02 µM	4.68 µM
CC(C)(C)c1ccc(CNC[C@H](O)c2ccc(F)cc2F)cc1	0.891 µM	2.82 µM	1.95 µM	1.45 µM	> 10 µM
CN(c1ccccc1)c1ccc(CN2CCN([C@H]3CCNC3)CC2)cc1	4.17 µM	9.33 µM	6.46 µM	> 10 µM	> 10 µM
Oc1ccc(C2=CCN(Cc3cccc4[nH]ccc34)CC2)cc1	7.24 µM	10 µM	5.75 µM	> 10 µM	> 10 µM
Cc1ccc2[nH]c(-c3cc4n(n3)CCN(c3ccnc(N)n3)C4)nc2c1C	1.78 µM	2.63 µM	2.63 µM	3.63 µM	> 10 µM
OCCN1CCC(NCCc2cc(Cl)cc(Cl)c2)CC1	4.07 µM	3.63 µM	3.31 µM	6.61 µM	> 10 µM
Cc1ccc2nc(-c3cccc(NC(=O)c4ccc(OC(F)(F)F)c(Cl)c4)c3)[nH]c2n1	3.31 µM	6.46 µM	4.37 µM	> 10 µM	> 10 µM
COc1ccnc(NCCCc2nc(-c3ccncc3)cs2)n1	4.79 µM	5.89 µM	4.68 µM	> 10 µM	> 10 µM

Now from value to molecule, other results behind:

IC50 (Plasmodium falciparum [1])	IC50 (Plasmodium falciparum [2])	IC50 (Plasmodium falciparum [3])	IC50 (Plasmodium falciparum [4])	Compound	IC50 at 72 h [5]
4.07 µM	4.17 µM	4.37 µM	7.41 µM	CN(Cc1cn(CC(N)=O)c2ccccc12)CC1CCN(CCc2ccc(F)cc2)CC1	> 10 µM
7.24 µM	> 10 µM	> 10 µM	> 10 µM	Cc1ccc2c(-c3ccccc3CN3CCNCC3)cccc2n1	> 10 µM
4.07 µM	9.33 µM	8.51 µM	4.57 µM	Oc1cccc2c1CCC[C@@H]2NCc1ccc2occc2c1	> 10 µM
2.69 µM	8.71 µM	> 10 µM	> 10 µM	COc1ccc2[nH]cc(C3=CCN(c4ccc5nnc(-c6ccccc6F)n5n4)CC3)c2c1	> 10 µM
3.24 µM	8.71 µM	3.55 µM	8.91 µM	Cc1sc2nc(-c3ccccn3)nc(NCCc3nccn3C)c2c1-c1ccccc1	8.32 µM
3.98 µM	1.29 µM	4.47 µM	> 10 µM	O=C(NCc1cccc(-c2cccnc2)c1)N[C@H]1CCN(C2CCCCC2)C1	> 10 µM
3.24 µM	> 10 µM	> 10 µM	1.41 µM	Cn1cc(-c2cncc(C(=O)NC3CCN(c4cccc(F)c4)CC3)c2)cn1	> 10 µM
5.01 µM	> 10 µM	> 10 µM	2.95 µM	CCOc1cccc(N2CCN(C(=O)c3cc(-c4ccc(F)cc4)[nH]n3)CC2)n1	> 10 µM
8.32 µM	9.12 µM	9.77 µM	> 10 µM	CCn1cc(-c2cccc(C(=O)N[C@@H](C)CN3CCc4ccccc4C3)c2)cn1	> 10 µM
2.88 µM	3.72 µM	2.69 µM	7.94 µM	c1cncc(-c2ccc(CNC3CCN(Cc4cccs4)CC3)cc2)c1	> 10 µM
1.15 µM	1.29 µM	1.23 µM	> 10 µM	Cc1cccc(Nc2ccnc(Nc3ccc(N4CCN(C)CC4)cc3)n2)c1	> 10 µM
3.89 µM	4.17 µM	3.8 µM	10 µM	O[C@H]1CCN(Cc2cccc(NCc3cn4ccnc4s3)c2)C1	> 10 µM
1.41 µM	2.24 µM	2.19 µM	3.63 µM	O[C@H]1CCN(Cc2ccccc2CNc2cccc(-n3ccnc3)n2)C1	> 10 µM
3.31 µM	3.8 µM	3.24 µM	7.76 µM	NC(=O)[C@]1(O)CCN(c2ccnc3ccc(Oc4ccccc4)cc23)C1	> 10 µM
3.89 µM	10.2 µM	6.46 µM	> 10 µM	O=C(NCC1CC1)c1cc2c(OCc3ccc(Cl)cc3)cccc2[nH]1	> 10 µM
0.513 µM	0.977 µM	0.955 µM	0.776 µM	CCc1oc2ccccc2c1CNC[C@H](O)c1ccc(Cl)cc1	> 10 µM
